We go through 7 compounds from EP4635500A1, “THERAPEUTIC AGENT FOR BACTERIAL INFECTION” (Sumitomo Pharma Co., Ltd., priority 2022, dated 2024).

One test addresses OXA-23 (Acinetobacter baumannii, UniProt Q9L4P2). The test is described as follows: Ki,app against β-lactamase (Example 1, Table 1). The test is classed as biochemical. The method, then:
(§1) After stirring, the resultants were preincubated for 30 minutes at 37°C. The reporter substrate solution was incubated at 37°C for 15 minutes or more, dispensed at 100 µL/well, and measured for a change in absorbance by a microplate reader at 37°C. For each measured concentration of the positive control and the inhibitor, an initial rate (µmol/L/sec) was determined from a time to be analyzed and a change in product amount. […] Ki,app for each inhibitor concentration was calculated from the slope, the inhibitor concentration, an enzyme concentration, Km, and kcat using Expression 2. If the initial rate was determined at two or more concentrations for each inhibitor and a plurality of Ki,app could be obtained, an average value was used as the Ki,app for the inhibitor. t−tc = Km /Vmax x ([Inhibitor]/Ki,app)x Ln[S]0 /[S] [formula] Ki,app = [Inhibitor]x Km /(kcatx[Enzyme])x 1/slope [formula]
(§2) The experiment was performed in duplicate.

Another test deals with KPC-2 (Klebsiella pneumoniae, UniProt Q9F663). In words: Ki,app against β-lactamase (Example 1, Table 1). The test is classed as biochemical. As to the method:
as §1, §2

A further test has as its target OXA-48 (Klebsiella pneumoniae, UniProt Q6XEC0). The test is described as follows: Ki,app against β-lactamase (Example 1, Table 1). The test is classed as biochemical. As to the method:
as §1, §2

In another test the target is KPC-38 (Klebsiella pneumoniae, UniProt Q9F663). The test is classed as biochemical. As to conditions: read-out: Ki app; KPC-38, class A; 30 min preincubation; n.d.: too low inhibitor activity at 100 µmol/L. As to the method:
as §1, §2

A further test concerns the target KPC-3 (Klebsiella pneumoniae, UniProt Q9F663, H272Y). The test is described as follows: biochemical. The test is classed as biochemical. As to the method:
as §1, §2

Another test addresses OXA-72 (Acinetobacter baumannii, UniProt Q5XQU0). In words: Ki,app against β-lactamase (Example 1, Table 1). The test is classed as biochemical. As to conditions: OXA-72, class D; 30 min preincubation; n.d.: too low inhibitor activity at 100 µmol/L; *: value from one of three experiments. As to the method: as §1, §2
Another test addresses OXA-65 (Acinetobacter baumannii, UniProt Q58XD3). In words: Ki,app against β-lactamase (Example 1, Table 1). As to conditions: OXA-65, class D; 30 min preincubation; n.d.: too low inhibitor activity at 100 µmol/L. The test is classed as biochemical. The method, then: as §1, §2
Another test deals with OXA-66 (Acinetobacter baumannii, UniProt Q58XD2). In words: Ki,app against β-lactamase (Example 1, Table 1). The test is classed as biochemical. As to conditions: OXA-66, class D; 30 min preincubation; n.d.: too low inhibitor activity at 100 µmol/L. The method, then: as §1, §2
The target of a further test is CTX-M-14 (Escherichia coli, UniProt Q9L5C7). The test is described as follows: Ki,app against β-lactamase (Example 1, Table 1). The test is classed as biochemical. Particulars: CTX-M-14, class A; 30 min preincubation; n.d.: too low inhibitor activity at 100 µmol/L. As to the method: as §1, §2
For a further test, the target named is CTX-M-27 (Escherichia coli, UniProt Q840M4). The test is described as follows: Ki,app against β-lactamase (Example 1, Table 1). The test is classed as biochemical. Particulars: CTX-M-27, class A; 30 min preincubation; n.d.: too low inhibitor activity at 100 µmol/L. The method, then:
as §1, §2

The target in the next test is SHV-12 (Klebsiella pneumoniae, UniProt P0A3M1, L31Q). The test is described as follows: Ki,app against β-lactamase (Example 1, Table 1). The test is classed as biochemical. Particulars: SHV-12, class A; 30 min preincubation; n.d.: too low inhibitor activity at 100 µmol/L. As to the method:
as §1, §2

In a further test the target is PDC-11 (Pseudomonas aeruginosa, UniProt P24735, form not given, species not given). The test is classed as biochemical. As to conditions: PDC-11, class C; 30 min preincubation; n.d.: too low inhibitor activity at 100 µmol/L; read-out: Ki app. As to the method: as §1, §2
Another test addresses KPC-33 (Klebsiella pneumoniae, UniProt Q9F663, D178Y). In words: biochemical. As to the method: as §1, §2
The next test deals with KPC-8 (Klebsiella pneumoniae, UniProt Q9F663, H272Y/V239G). The test is described as follows: biochemical. As to the method: as §1, §2
In another test the target is KPC-6 (Klebsiella pneumoniae, UniProt Q9F663, V239G). In words: biochemical. The method, then:
as §1, §2

The next test has as its target KPC-31 (Klebsiella pneumoniae, UniProt Q9F663, D178Y/H272Y). The test is described as follows: biochemical. The method, then: as §1, §2
Test [1] relates to anaerobic bacteria. The test is described as follows: microbe, parasite or virus in culture. The test is classed as cell-based.
For test [2], the system named is anaerobic bacteria. As to conditions: cited from earlier work.
A further test deals with OXA-24 (Acinetobacter baumannii, UniProt Q8RLA6). The test is described as follows: Ki,app against β-lactamase (Example 1, Table 1). The test is classed as biochemical. As to conditions: OXA-24, class D; 30 min preincubation; n.d.: too low inhibitor activity at 100 µmol/L. As to the method: as §1, §2
The mark [3] stands for this setting: KPC-2, class A, 30 min preincubation, n.d.: too low inhibitor activity at 100 µmol/L, read-out: Ki app.
[4] abbreviates: KPC-3, class A, 30 min preincubation, n.d.: too low inhibitor activity at 100 µmol/L, read-out: Ki app.

Each structure is given as a SMILES string. ≈ marks a conversion by molar mass, not a printed value. Where two headings read alike, the source gives them in different places. Marks after values point to notes of the source that are not given here. Some results are limits rather than exact numbers.

Consider `O=C(O)[C@H]1/C(=C/CO)O[C@@H]2CC(=O)N21` [Clavulanate, clavulanate], for which the Ki turned out to be 394 ± 169 nM at OXA-23; 76.7 ± 38.3 nM on KPC-2; 103 ± 36.5 nM at OXA-48 (OXA-48, class D, 30 min preincubation, n.d.: too low inhibitor activity at 100 µmol/L, read-out: Ki app); 78.2 ± 20.5 nM on KPC-38; 128 ± 53.2 nM at KPC-3.
For the compound `NC(=O)[C@@H]1CC[C@@H]2CN1C(=O)N2OS(=O)(=O)O` [Avibactam, avibactam], the Ki on OXA-72 was 691 ± 63.8 nM; at OXA-65, 5.9 ± 1.05 µM; on OXA-66 it was 7.35 ± 0.963 µM.
As for `O=C(NC1CCNCC1)[C@@H]1CC[C@@H]2CN1C(=O)N2OS(=O)(=O)O` [Relebactam, relebactam], the Ki on OXA-23 (OXA-23, class D, 30 min preincubation, n.d.: too low inhibitor activity at 100 µmol/L, read-out: Ki app) was determined as 5640 ± 522 nM.
In the case of `O=C(O)C[C@@H]1CC[C@H](NC(=O)Cc2cccs2)B(O)O1` [Vaborbactam, vaborbactam], the Ki on KPC-2 (setting [3]) came to 63.7 nM; at CTX-M-14 it was 392 ± 20.3 nM; on CTX-M-27 it was 351 ± 28.7 nM; at SHV-12, 755 ± 103 nM; at KPC-38, 48.3 nM; on PDC-11, 3.86 ± 0.163 µM. The Ki on KPC-3 (setting [4]) was found to be 88.3 ± 30.3 nM; on KPC-33, 4.6 ± 0.437 µM; at KPC-8, 114 ± 22.1 nM; on KPC-6 it was 109 ± 21.7 nM; on KPC-31, 13.3 ± 8.59 µM.
Regarding `Cc1ncc([N+](=O)[O-])n1CCO` [MNZ], the MIC worked out at 2 µg/mL (≈ 11.7 µM) in the test on anaerobic bacteria [1] (ATCC29328, Finegoldia magna ATCC 29328, read-out: MIC); 1 µg/mL (≈ 5.84 µM) in the test on anaerobic bacteria [1] (ATCC43055, Eggerthella lenta ATCC 43055, read-out: MIC); 1 µg/mL (≈ 5.84 µM) in the test with anaerobic bacteria [1] (ATCC43255, Clostridioides difficile ATCC 43255, read-out: MIC); 2 µg/mL (≈ 11.7 µM) with anaerobic bacteria [1] (ATCCBAA1803, Clostridioides difficile ATCC BAA-1803, read-out: MIC); 1 µg/mL (≈ 5.84 µM) with anaerobic bacteria [1] (ATCCBAA1870, Clostridioides difficile ATCC BAA-1870, read-out: MIC); 1 µg/mL (≈ 5.84 µM) with anaerobic bacteria [1] (Bacteroides fragilis, ATCC25285). Moreover, the MIC was 1 µg/mL (≈ 5.84 µM) in the test with anaerobic bacteria [1] (Bacteroides ovatus); 1 µg/mL (≈ 5.84 µM) with anaerobic bacteria [1] (Bacteroides thetaiotaomicron KUB2984, read-out: MIC); 2 µg/mL (≈ 11.7 µM) with anaerobic bacteria [1] (Bacteroides thetaiotaomicron, ATCC29741); 2 µg/mL (≈ 11.7 µM) in the test on anaerobic bacteria [1] (Clostridium perfringens, ATCC13124); > 64 µg/mL against anaerobic bacteria [1] (Cutibacterium acnes, ATCC11827); ≤ 0.125 µg/mL in the test on anaerobic bacteria [1] (Fusobacterium nucleatum, ATCC25586). Further, the MIC against anaerobic bacteria [1] (Fusobacterium varium, ATCC27725) came to 0.5 µg/mL (≈ 2.92 µM); in the test with anaerobic bacteria [1] (Lancefieldella rimae), 1 µg/mL (≈ 5.84 µM); in the test with anaerobic bacteria [1] (Olsenella uli), 4 µg/mL (≈ 23.4 µM); in the test on anaerobic bacteria [1] (Parvimonas micra KUB3000, read-out: MIC), 0.5 µg/mL (≈ 2.92 µM); with anaerobic bacteria [1] (Peptoniphilus asaccharolyticus, ATCC14963) it was 1 µg/mL (≈ 5.84 µM); with anaerobic bacteria [1] (Peptostreptococcus anaerobius, ATCC27337), 0.5 µg/mL (≈ 2.92 µM). Moreover, the MIC was 2 µg/mL (≈ 11.7 µM) in the test with anaerobic bacteria [1] (Prevotella histicola); 1 µg/mL (≈ 5.84 µM) against anaerobic bacteria [1] (Prevotella intermedia); 1 µg/mL (≈ 5.84 µM) with anaerobic bacteria [1] (Prevotella melaninogenica); > 64 µg/mL in the test on anaerobic bacteria [1] (Schaalia odontolytica, ATCC17929); 2 µg/mL (≈ 11.7 µM) in the test with anaerobic bacteria [1] (Segatella buccae). Also, the “Acceptable MIC range of quality control (QC) strain” value in the test on anaerobic bacteria [2] (Bacteroides fragilis ATCC 25285 (QC strain)) is 1 (0.25 to 1)* µg/mL; in the test on anaerobic bacteria [2] (Bacteroides thetaiotaomicron ATCC 29741 (QC strain)), 2 (0.5 to 2)* µg/mL.
In the case of `C[C@]1(Cn2ccnn2)[C@H](C(=O)O)N2C(=O)C[C@H]2S1(=O)=O` [Tazobactam, tazobactam], the Ki on OXA-24 came out at 100 ± 45.6 nM; on KPC-2 (setting [3]), 159 nM; at KPC-38, 112 ± 14.5 nM; at KPC-3 (setting [4]), 270 ± 80.8 nM; on KPC-8, 52 ± 11.8 nM; on KPC-6, 79.9 ± 16.5 nM.
Regarding `CC1(C)[C@H](C(=O)O)N2C(=O)C[C@H]2S1(=O)=O` [Sulbactam, sulbactam], the Ki on OXA-23 turned out to be 681 ± 74.3 nM; at KPC-2, 420 ± 99.2 nM; at OXA-48, 264 ± 116 nM; at KPC-38, 405 ± 99.6 nM; on KPC-3, 674 ± 239 nM.
